What all share (assay type): in vivo
Experiment [1] relates to Beet Armyworm (Spodoptera exigua, LAPHEG). Briefly: Bioassay on Beet Armyworm (BAW), 128-well diet tray assay. Summed up:
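Second instar larvae were exposed to diet treated at 50 μg/cm^2 for five to seven days at 25° C.; mortality was averaged over eight wells.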

For experiment [2], the system named is Cabbage Looper (Trichoplusia ni, TRIPNI). In words: Bioassay on Cabbage Looper (CL), 128-well diet tray assay. The following applies: Trichoplusia ni. An outline of the steps: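 Mortality of second instar larvae exposed to diet coated with 50 μg/cm^2 compound (acetone-water 90:10 vehicle, dried); 25° C., 5–7 days.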
For experiment [3], the system named is Yellow Fever Mosquito (Aedes aegypti, AEDSAE). In words: Bioassay on Yellow Fever Mosquito (YFM), 96-well plate larval assay. The following applies: for YFM (Biological Results, rating): Species YFM (Yellow Fever Mosquito); for YFM rating: Yellow Fever Mosquito, 96-well plate larval assay. An outline of the steps:
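Aedes aegypti larvae (about 1 day old) in liver-powder water were added to plates dispensed from DMSO master plates (4000 ppm stock) diluted with 90:10 water/acetone; six replicate plates per master. Lidded plates were held at room temperature for 3 days, then each well was scored for mortality.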

The mark [4] stands for this setting: Species BAW (Beet Armyworm), read-out: BAW (Biological Results, rating).
Setting [5] is: Species CL (Cabbage Looper), read-out: CL (Biological Results, rating).
Setting [6] is: Beet Armyworm, 128-well diet tray assay, read-out: BAW rating.
Setting [7] is: Cabbage Looper, 128-well diet tray assay, read-out: CL rating.

Consider 19 compounds from patent publication US10219516B2, “Molecules having pesticidal utility, and intermediates, compositions, and processes, related thereto” (priority 2015, dated 2019).

The structures appear in SMILES notation. Read-outs that look alike come from different tables or passages of the source.

For the compound `N#Cc1cc(F)ccc1NC(=O)c1cccc(NC(=O)[C@H]2[C@H](c3cc(Cl)cc(Cl)c3)C2(Cl)Cl)c1` (relative stereo) [F271, trans-N-(2-Cyano-4-fluorophenyl)-3-(2,2-dichloro-3-(3,5-dichlorophenyl)cyclopropane-1-carboxamido)benzamide], the pest or weed control at 50 µg/cm2 in experiment [1] (setting [4]) and in experiment [2] (setting [5]) was 50 to 100% each time. The “YFM (Biological Results, rating)” value in experiment [3] is “A (80-100)”.
As for `Cn1nc(NC(=O)c2cc(NC(=O)[C@H]3[C@H](c4cc(Cl)cc(Cl)c4)C3(Cl)Cl)ccc2Cl)c2c(Cl)cccc21` (relative stereo) [F463, 2-Chloro-N-(4-chloro-1-methyl-1H-indazol-3-yl)-5-(trans)-(2,2-dichloro-3-(3,5-dichlorophenyl)cyclopropane-1-carboxamido)benzamide], the pest or weed control at 50 µg/cm2 in experiment [1] (setting [6]) and in experiment [2] (setting [7]) was 50 to 100% in each case. In experiment [3], the YFM rating entry is “A (80-100)”.
As to `CN(C(=O)c1cc(NC(=O)[C@H]2[C@H](c3cc(Cl)cc(Cl)c3)C2(Cl)Cl)ccc1F)c1ccccc1` (relative stereo) [F66, trans-5-(2,2-Dichloro-3-(3,5-dichlorophenyl)cyclopropane-1-carboxamido)-2-fluoro-N-methyl-N-phenylbenzamide], the pest or weed control at 50 µg/cm2 in experiment [1] (setting [4]) and in experiment [2] (setting [5]) was 50 to 100% throughout. The “YFM (Biological Results, rating)” value in experiment [3] is “A (80-100)”.
For `Cn1nc(NC(=O)c2cc(NC(=O)C3C(c4cc(Cl)cc(Cl)c4)C3(Cl)Cl)ccc2Cl)c2c(F)cccc21` (stereo not drawn) [F449, 2-Chloro-5-(trans)-2,2-dichloro-3-(3,5-dichlorophenyl)cyclopropane-1-carboxamido)-N-(4-fluoro-1-methyl-1H-indazol-3-yl)benzamide], the pest or weed control at 50 µg/cm2 in experiment [1] (setting [6]) and in experiment [2] (setting [7]) was 50 to 100% throughout. The YFM rating result in experiment [3] is recorded as “A (80-100)”.
Turning to `O=C(Nc1ccc(F)cc1F)c1cccc(NC(=O)C2C(c3cc(Cl)cc(Cl)c3)C2(Cl)Cl)c1` (stereo not drawn) [F186, 3-(trans)-2,2-Dichloro-3-(3,5-dichlorophenyl)cyclopropane-1-carboxamido)-N-(2,4-difluorophenyl)benzamide], the pest or weed control at 50 µg/cm2 in experiment [1] (setting [4]) and in experiment [2] (setting [5]) was 50 to 100% throughout. Besides, the “YFM (Biological Results, rating)” value in experiment [3] is “B (More than 0-Less than 80)”.
Turning to `O=C(Nc1c(F)cccc1F)c1cc(NC(=O)[C@H]2[C@H](c3cccc(C(F)(F)F)c3)C2(Cl)Cl)ccc1Cl` (relative stereo) [F58, trans-2-Chloro-5-(2,2-dichloro-3-(3-(trifluoromethyl)phenyl)cyclopropane-1-carboxamido)-N-(2,6-difluorophenyl)benzamide], the pest or weed control at 50 µg/cm2 in experiment [1] (setting [4]) and in experiment [2] (setting [5]) was 50 to 100% in each case. Moreover, the “YFM (Biological Results, rating)” value in experiment [3] was “A (80-100)”.
Turning to `CC(=O)c1ccc(NC(=O)c2cc(NC(=O)[C@H]3[C@H](c4cc(Cl)cc(Cl)c4)C3(Cl)Cl)ccc2Cl)c(F)c1` (relative stereo) [PF78, trans-N-(4-acetyl-2-fluorophenyl)-2-chloro-5-(2,2-dichloro-3-(3,5-dichlorophenyl)cyclopropane-1-carboxamido)benzamide], the pest or weed control at 50 µg/cm2 in experiment [1] (setting [6]) and in experiment [2] (setting [7]) was 50 to 100% in each case. Besides, the YFM rating entry in experiment [3] is “A (80-100)”.
Consider `Nc1cc(C(F)(F)F)cc(NC(=O)c2cc(NC(=O)C3C(c4cc(Cl)cc(Cl)c4)C3(Cl)Cl)ccc2Cl)n1` (stereo not drawn) [F328, N-(6-Amino-4-(trifluoromethyl)pyridin-2-yl-2-chloro-5-(trans-2,2-dichloro-3-(3,5-dichlorophenyl)cyclopropane-1-carboxamido)benzamide], for which the pest or weed control at 50 µg/cm2 in experiment [1] (setting [4]) and in experiment [2] (setting [5]) was 50 to 100% in each case. Also, the “YFM (Biological Results, rating)” value in experiment [3] was “A (80-100)”.
For `O=C(Nc1ccc(NC(=O)C(F)(F)F)cc1)c1cc(NC(=O)[C@H]2[C@H](c3cc(Cl)cc(Cl)c3)C2(Cl)Cl)ccc1Cl` (relative stereo) [PF24, trans-2-chloro-5-(2,2-dichloro-3-(3,5-dichlorophenyl)cyclopropane-1-carboxamido)-N-(4-(2,2,2-trifluoroacetamido)phenyl)benzamide], the pest or weed control at 50 µg/cm2 in experiment [1] (setting [6]) and in experiment [2] (setting [7]) was 50 to 100% each time. The YFM rating result in experiment [3] was “A (80-100)”.
Regarding `N#Cc1ccc(NC(=O)c2cc(NC(=O)[C@H]3[C@H](c4cc(Cl)cc(Cl)c4)C3(Cl)Cl)ccc2Cl)c(C#N)c1` (relative stereo) [F287, trans-2-Chloro-5-(2,2-dichloro-3-(3,5-dichlorophenyl)cyclopropane-1-carboxamido)-N-(2,4-dicyanophenyl)benzamide], the pest or weed control at 50 µg/cm2 in experiment [1] (setting [4]) and in experiment [2] (setting [5]) was 50 to 100% each time. In experiment [3], the “YFM (Biological Results, rating)” value was “A (80-100)”.
For the compound `Nc1ccc(F)cc1NC(=O)c1cc(NC(=O)[C@H]2[C@H](c3cc(Cl)c(Cl)c(Cl)c3)C2(Cl)Cl)ccc1Cl` [F405, N-(2-Amino-5-fluorophenyl)-2-chloro-5-((1R,3R)-2,2-dichloro-3-(3,4,5-trichlorophenyl)cyclopropane-1-carboxamido)benzamide], the pest or weed control at 50 µg/cm2 in experiment [1] (setting [6]) and in experiment [2] (setting [7]) was 50 to 100% in each case. Besides, the YFM rating entry in experiment [3] is “A (80-100)”.
`CC(=O)c1cc(F)ccc1NC(=O)c1cc(NC(=O)[C@H]2[C@H](c3cc(Cl)cc(Cl)c3)C2(Cl)Cl)ccc1Cl` (relative stereo) [PF77, trans-N-(2-acetyl-4-fluorophenyl)-2-chloro-5-(2,2-dichloro-3-(3,5-dichlorophenyl)cyclopropane-1-carboxamido)benzamide]: the pest or weed control at 50 µg/cm2 in experiment [1] (setting [6]) and in experiment [2] (setting [7]) was 50 to 100% each time. The YFM rating entry in experiment [3] is listed as “A (80-100)”.
`O=C(Nc1ccc(F)cc1[N+](=O)[O-])c1cc(NC(=O)[C@H]2[C@H](c3ccc(F)c(Cl)c3)C2(Cl)Cl)ccc1Cl` [F557, 2-Chloro-5-((1R,3R)-2,2-dichloro-3-(3-chloro-4-fluorophenyl)cyclopropane-1-carboxamido)-N-(4-fluoro-2-nitrophenyl)benzamide]: the pest or weed control at 50 µg/cm2 in experiment [1] (setting [6]) and in experiment [2] (setting [7]) was 50 to 100% throughout. The YFM rating result in experiment [3] is “A (80-100)”.
As to `Cn1ccc2cccc(NC(=O)c3cc(NC(=O)[C@H]4[C@H](c5cc(Cl)cc(Cl)c5)C4(Cl)Cl)ccc3Cl)c21` (relative stereo) [F531, 2-Chloro-5-(trans)-(2,2-dichloro-3-(3,5-dichlorophenyl)cyclopropane-1-carboxamido)-N-(1-methyl-1H-indol-7-yl)benzamide], the pest or weed control at 50 µg/cm2 in experiment [1] (setting [6]) and in experiment [2] (setting [7]) was 50 to 100% throughout. The YFM rating entry in experiment [3] is “A (80-100)”.
On to `O=C(Nc1nc2cc(F)ccc2s1)c1cc(NC(=O)C2C(c3cc(Cl)cc(Cl)c3)C2(Cl)Cl)ccc1Cl` (stereo not drawn) [F442, 2-Chloro-5-(trans)-2,2-dichloro-3-(3,5-dichlorophenyl)cyclopropane-1-carboxamido)-N-(5-fluorobenzo[d]thiazol-2-yl)benzamide], for which the pest or weed control at 50 µg/cm2 in experiment [1] (setting [6]) and in experiment [2] (setting [7]) was 50 to 100% each time. The YFM rating entry in experiment [3] is given as “B (More than 0-Less than 80)”.
For the compound `Cc1cc2cc(NC(=O)c3cc(NC(=O)C4C(c5cc(Cl)cc(Cl)c5)C4(Cl)Cl)ccc3Cl)ccc2[nH]1` (stereo not drawn) [F454, 2-Chloro-5-(trans)-2,2-dichloro-3-(3,5-dichlorophenyl)cyclopropane-1-carboxamido)-N-(2-methyl-1H-indol-5-yl)benzamide], the pest or weed control at 50 µg/cm2 in experiment [1] (setting [6]) and in experiment [2] (setting [7]) was 50 to 100% in each case. For the same compound, the YFM rating result in experiment [3] was “A (80-100)”.
For `CN1CCc2cc(NC(=O)c3cc(NC(=O)[C@H]4[C@H](c5cc(Cl)cc(Cl)c5)C4(Cl)Cl)ccc3Cl)ccc21` (relative stereo) [F473, 2-Chloro-5-(trans)-(2,2-dichloro-3-(3,5-dichlorophenyl)cyclopropane-1-carboxamido)-N-(1-methylindolin-5-yl)benzamide], the pest or weed control at 50 µg/cm2 in experiment [1] (setting [6]) and in experiment [2] (setting [7]) was 50 to 100% throughout. Besides, in experiment [3], the YFM rating entry is “A (80-100)”.
For `N#Cc1ccc(NC(=O)c2cc(NC(=O)[C@H]3[C@H](c4cc(Cl)cc(Cl)c4)C3(Cl)Cl)ccc2Cl)nc1` (relative stereo) [PF143, trans-2-Chloro-N-(5-cyanopyridin-2-yl)-5-(2,2-dichloro-3-(3,5-dichlorophenyl)cyclopropane-1-carboxamido)benzamide], the pest or weed control at 50 µg/cm2 in experiment [1] (setting [6]) and in experiment [2] (setting [7]) was 50 to 100% throughout. For the same compound, in experiment [3], the YFM rating result is recorded as “A (80-100)”.
On to `Cc1cc(NC(=O)OC(C)(C)C)ccc1NC(=O)c1cccc(NC(=O)[C@H]2[C@H](c3cc(Cl)c(Cl)c(Cl)c3)C2(Cl)Cl)c1` (relative stereo) [F262, trans-tert-Butyl (4-(3-(2,2-dichloro-3-(3,4,5-trichlorophenyl)cyclopropane-1-carboxamido)benzamido)-3-methylphenyl)carbamate], for which the pest or weed control at 50 µg/cm2 in experiment [1] (setting [4]) and in experiment [2] (setting [5]) was 50 to 100% each time. Besides, in experiment [3], the “YFM (Biological Results, rating)” value is “B (More than 0-Less than 80)”.
